Measured values as given in patent publication US5935805A, “Measurement of bilirubin albumin binding” (Research Corporation Technologies, Inc., priority 1997, dated 1999).
“And” between values parts separate entries of the source, which are not always exact repeats. Equal values may be shown once. Read-outs that look alike come from different tables or passages of the source. Values belong to the compound of their own block, whether it stands above or below them.

Columns and labels:
albumin [1] = biological target: T1, albumin (Homo sapiens, UniProt P02768); test: Oxidation of bilirubin-14C/defatted albumin by peroxidase and peroxide, Sephadex G25 column radioactivity; assay type: biochemical; settings: for Bilirubin: 50 μg/mL peroxidase, 1000 μmol/L ethyl hydrogen peroxide; for Eluate counts/min: albumin fraction from Sephadex G25; for Bilirubin (% time 0): 278 µM
Procedure: A bilirubin-^14 C/defatted albumin solution (molar ratio 0.42) containing 278 μmol/L bilirubin and 60,839 counts per minute, 50 μg/mL peroxidase, and 1000 μmol/L ethyl hydrogen peroxide were allowed to react for 8 minutes. At various times (0 to 8 minutes), 100 μl of reaction mix was removed and added to 10 μl of 100 mmol/L Na2 S to stop the reaction. The bilirubin concentration was calculated from the absorption at 460 nm after dilution to 1.0 ml with 0.055M Somensen's buffer, and the entire diluted reaction mixture was then placed on a Sephadex G25 0.5×5 cm (diameter×length) column prepared according to the manufacturer's instructions. The albumin fraction was then eluted with buffer. The bilirubin remaining and the radioactivity of the eluate were measured at each time interval to determine whether the oxidation products remained bound to albumin during the reaction and therefore passed through the Sephadex column with the albumin.

albumin [2] = biological target: T1, albumin; settings: lowest established value; cited from earlier work
albumin [3] = biological target: T1, albumin; test: Bilirubin-albumin binding isotherm in minimally diluted newborn plasma titrated with bilirubin; parameters: Plasma from a partial exchange transfusion performed in a term newborn with polycythemia; from tissue; host or cells: plasma of a term newborn (partial exchange transfusion); settings: dilution 1:1.8, two-site model, non-linear regression
Text: Plasma from a partial exchange transfusion performed in a term newborn with polycythemia was titrated with bilirubin and the unconjugated unbound bilirubin determined by the present method to assess the bilirubin-albuminbinding isotherm in minimally diluted plasma. Non-linear regression used to determine the equilibrium binding constants, and a two-site model with interaction between sites best fit the binding isotherm.

horseradish peroxidase = test: Standardization of catalyzing reagent: peroxidase catalyzed oxidation of bilirubin by peroxide in the absence of albumin; assay type: biochemical; settings: about 21° C.
Procedure: This is done by determining the Kp, i.e., the first order rate constant for the oxidation of bilirubin by the oxidizing reagent (usually peroxide) in the presence of the catalyzing reagent. The Kp is determined by standard techniques known in the art, utilizing known concentrations of unbound unconjugated bilirubin. […] If B is the unconjugated unoxidized bilirubin concentration at time t, P is the concentration of the catalyzing reagent e.g., peroxidase, Bo, and Bt are the initial unconjugated bilirubin concentration and the unconjugated bilirubin concentration at time t, respectively, and the concentration of the oxidizing reagent e.g., peroxide is not rate limiting, then at concentrations of bilirubin that are well below the Km for peroxidase catalyzed peroxide oxidation of bilirubin, (for HRP, this value is .congruent.70 uMol at 37° C.), then
dB/dt=-Kp ·P·B EQ.3
Integrating Equation 3 between the limits t=o and t=t, wherein t is the predetermined time referred to hereinabove provides [formula] Thus, in accordance with EQ.4, the value of Kp is determined if a known concentration of peroxidase is reacted with an excess amount of peroxide with a known amount of unbound unconjugated bilirubin.

albumin [4] = biological target: T1, albumin; test: Unbound bilirubin in bilirubin-defatted albumin solution with sulfisoxazole, peroxidase method of the instant invention at 1:1.8 dilution; assay type: binding; settings: 15 mg/dL sulfisoxazole; bilirubin 20 mg/dL, defatted albumin 3.0 g/dL; dilution 1:1.8; mean and SD of 3 replicates
Text: (§1) A 0.1 cm path cuvette was employed to allow direct spectral analysis of the unbound bilirubin at the 1:1.8 dilution.

albumin [5] = biological target: T1, albumin; test: Unbound bilirubin in bilirubin-defatted albumin solution with sulfisoxazole, Jacobsen and Wennberg method at 1:41.8 dilution; assay type: binding; settings: 15 mg/dL sulfisoxazole; bilirubin 20 mg/dL, defatted albumin 3.0 g/dL; dilution 1:41.8; mean and SD of 3 replicates
Procedure: as §1
The Jacobsen and Wennberg method was performed as above using a 1 cm path cuvette. The […] technique was performed by stopping the reaction after five minutes with 1.0 ml of diazo-A and then adding 1.0 ml of 90% methanol.

newborns = settings: displaces bilirubin from albumin, blood level 15 mg/dL reported; cited from earlier work

T1 sequence (P02768 25-609): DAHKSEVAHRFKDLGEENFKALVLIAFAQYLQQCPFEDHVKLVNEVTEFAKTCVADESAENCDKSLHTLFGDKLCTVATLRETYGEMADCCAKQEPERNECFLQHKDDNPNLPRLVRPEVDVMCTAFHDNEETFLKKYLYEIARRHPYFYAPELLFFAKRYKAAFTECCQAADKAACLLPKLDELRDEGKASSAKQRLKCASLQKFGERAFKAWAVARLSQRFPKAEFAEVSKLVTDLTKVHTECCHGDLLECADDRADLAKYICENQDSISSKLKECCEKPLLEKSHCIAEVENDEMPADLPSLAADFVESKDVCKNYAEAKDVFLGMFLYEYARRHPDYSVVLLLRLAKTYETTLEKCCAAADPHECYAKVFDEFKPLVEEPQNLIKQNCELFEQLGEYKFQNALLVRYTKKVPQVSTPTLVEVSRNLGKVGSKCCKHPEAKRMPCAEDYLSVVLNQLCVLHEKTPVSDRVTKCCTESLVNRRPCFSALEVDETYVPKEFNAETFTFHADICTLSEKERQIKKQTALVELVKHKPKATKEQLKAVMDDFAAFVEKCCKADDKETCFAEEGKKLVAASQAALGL

Eluate counts/min (% time 0) (albumin [1]; reaction time 0 min): 100 % time 0
Bilirubin (albumin [1]; reaction time 0 min): 4.86 µmol/L and 4.93 µmol/L
Eluate counts/min (albumin [1]; reaction time 0 min): 57,675 counts/min and 57,692 counts/min
Eluate counts/min (% time 0) (albumin [1]; reaction time 4 min): 97 % time 0 and 92 % time 0
Bilirubin (albumin [1]; reaction time 4 min): 3.07 µmol/L and 3.36 µmol/L
Bilirubin (% time 0) (albumin [1]; reaction time 4 min, 4 min): 63 % time 0 and 68 % time 0
Eluate counts/min (albumin [1]; reaction time 4 min): 55,797 counts/min and 53,070 counts/min
Eluate counts/min (% time 0) (albumin [1]; reaction time 6 min): 87 % time 0 and 82 % time 0
Bilirubin (albumin [1]; reaction time 6 min): 2.70 µmol/L and 2.60 µmol/L
Bilirubin (% time 0) (albumin [1]; reaction time 6 min, 6 min): 55 % time 0 and 53 % time 0
Eluate counts/min (albumin [1]; reaction time 6 min): 50,119 counts/min and 47,500 counts/min
Eluate counts/min (% time 0) (albumin [1]; reaction time 8 min): 87 % time 0 and 86 % time 0
Bilirubin (albumin [1]; reaction time 8 min): 2.14 µmol/L and 2.24 µmol/L
Eluate counts/min (albumin [1]; reaction time 8 min): 50,174 counts/min and 49,405 counts/min
Kd (albumin [3]; read-out: Equilibrium dissociation constant, 1:1 bilirubin/albumin species): 0.059 µM
Kd (albumin [3]; read-out: Equilibrium dissociation constant, 2:1 bilirubin/albumin species): 0.0303 µM
Compound: C=CC1=C(C)/C(=C/c2[nH]c(Cc3[nH]c(/C=C4\NC(=O)C(C)=C4C=C)c(C)c3CCC(=O)O)c(CCC(=O)O)c2C)NC1=O [bilirubin, bilirubin IXa]
First order dissociation rate constant k-1 of the bilirubin-albumin complex, lowest value (albumin [2]): about 0.4 /min

Compound: horseradish peroxidase
Kp, first order rate constant for catalyzed oxidation of bilirubin (horseradish peroxidase): about eight

Compound: Cc1noc(NS(=O)(=O)c2ccc(N)cc2)c1C [sulfisoxazole]
CONCENTRATION OF UNBOUND BILIRUBIN + Sulfa (albumin [4]): 0.285 ± 0.03 μm
CONCENTRATION OF UNBOUND BILIRUBIN + Sulfa (albumin [5]): 0.092 ± .003 μm
Bilirubin toxicity when given to newborns (newborns): development of bilirubin toxicity
